Key:
[1] = system: IPOHE (Ipomoea hederacea, ivyleaf morningglory); assay: Postemergence foliar-applied mixtures, direct seeded rice, greenhouse; assay type: in vivo, Ipomoea hederacea Jacq.; settings: post-emergence, 480 h
Description: Seeds or nutlets of the desired test plant species were planted in a soil matrix prepared by mixing a loam or sandy loam soil (e.g., 28.6 percent silt, 18.8 percent clay, and 52.6 percent sand, with a pH of about 5.8 and an organic matter content of about 1.8 percent) and calcareous grit in an 80 to 20 ratio. The soil matrix was contained in plastic pots with a volume of 1 quart and a surface area of 83.6 square centimeters (cm^2). When required to ensure good germination and healthy plants, a fungicide treatment and/or other chemical or physical treatment was applied. The plants were grown for 8-22 days in a greenhouse with an approximate 14 h photoperiod which was maintained at about 29° C. during the day and 26° C. during the night. Nutrients (Peters Excel® 15-5-15 5-Ca 2-Mg and iron chelate) were applied in the irrigation solution as needed and water was added on a regular basis. Supplemental lighting was provided with overhead metal halide 1000-Watt lamps as necessary. The plants were employed for testing when they reached the first through fourth true leaf stage.
Treatments consisted of the acid or esters of 4-amino-3-chloro-5-fluoro-6-(4-chloro-2-fluoro-3-methoxy-phenyl) pyridine-2-carboxylic acid (Compound A), each formulated as an SC (suspension concentrate), and various herbicidal components alone and in combination. Forms of compound A were applied on an acid equivalent basis.
Other herbicidal components were applied on an active ingredient basis and included Photosystem II (PSII)-inhibiting herbicides propanil formulated as Stam® M4 EC, bentazon-sodium formulated as Basagran®, atrazine formulated as Atrazine 90 WDG, bromoxynil octanoate ester formulated as Buctril®, simetryne (technical grade material), simazine formulated as Princep® Caliber 90, ioxynil (technical grade material), cyanazine (technical grade material), and hexazinone (technical grade material).
Treatment requirements were calculated based upon the rates being tested, the concentration of active ingredient or acid equivalent in the formulation, and a 12 mL application volume at a rate of 187 L/ha.
For treatments comprised of formulated compounds, measured amounts of compounds were placed individually in 25 mL glass vials and diluted in a volume of 1.25% (v/v) Agri-Dex® crop oil concentrated to obtain 12× stock solutions. […] Application solutions were prepared by adding an appropriate amount of each stock solution (e.g., 1 mL) and diluted to the appropriate final concentrations with the addition of 10 mL of an aqueous mixture of 1.25% (v/v) crop oil concentrate so that the final spray solutions contained 1.25+/−0.05% (v/v) crop oil concentrate.
For treatments comprised of technical compounds, weighed amounts can be placed individually in 25 mL glass vials and dissolved in a volume of 97:3 v/v acetone/DMSO to obtain 12× stock solutions. […] Application solutions can be prepared by adding an appropriate amount of each stock solution (e.g., 1 mL) and diluted to the appropriate final concentrations with the addition of 10 mL of an aqueous mixture of 1.5% (v/v) crop oil concentrate so that the final spray solutions contain 1.25% (v/v) crop oil concentrate. When technical materials are used, the concentrated stock solutions can be added to the spray solutions so that the final acetone and DMSO concentrations of the application solutions are 16.2% and 0.5%, respectively.
For treatments comprised of formulated and technical compounds, weighed amounts of the technical materials were placed individually in 25 mL glass vials and dissolved in a volume of 97:3 v/v acetone/DMSO to obtain 12× stock solutions, and measured amounts of the formulated compounds were placed individually in 25 mL glass vials and diluted in a volume of 1.5% (v/v) crop oil concentrate or water to obtain 12× stock solutions. […]

[2] = system: SCPMA (Schoenoplectus maritimus, sea clubrush); assay: In-water applied mixtures, transplanted paddy rice, greenhouse; assay type: in vivo, Schoenoplectus maritimus (L.) Lye; settings: 20 DAA
Description: (§1) Weed seeds or nutlets of the desired test plant species were planted in puddled soil (mud) prepared by mixing a shredded, non-sterilized mineral soil (50.5 percent silt, 25.5 percent clay, and 24 percent sand, with a pH of about 7.6 and an organic matter content of about 2.9 percent) and water at a 1:1 volumetric ratio. The prepared mud was dispensed in 365 mL aliquots into 16-ounce (oz.) non-perforated plastic pots with a surface area of 86.59 square centimeters (cm^2) leaving a headspace of 3 centimeters (cm) in each pot Mud was allowed to dry overnight prior to planting or transplanting. Rice seeds were planted in Sun Gro MetroMix® 306 planting mixture, which typically has a pH of 6.0 to 6.8 and an organic matter content of about 30 percent, in plastic plug trays. Seedlings at the second or third leaf stage of growth were transplanted into 840 mL of mud contained in 32-oz. non-perforated plastic pots with a surface area of 86.59 cm^2 4 days prior to herbicide application. The paddy was created by filling the headspace of the pots with 2.5 to 3 cm of water. When required to ensure good germination and healthy plants, a fungicide treatment and/or other chemical or physical treatment was applied. The plants were grown for 4-22 days in a greenhouse with an approximate 14 h photoperiod which was maintained at about 29° C during the day and 26° C. during the night. Nutrients were added as Osmocote® (19:6:12, N:P:K+ minor nutrients) at 2 g per 16-oz. pot and 4 g per 32-oz. pot. Water was added on a regular basis to maintain the paddy flood, and supplemental lighting was provided with overhead metal halide 1000-Watt lamps as necessary. The plants were employed for testing when they reached the first through fourth true leaf stage.
(§2) Treatments consisted of the acid or esters of 4-amino-3-chloro-5-fluoro-6-(4-chloro-2-fluoro-3-methoxy-phenyl)pyridine-2-carboxylic acid (compound A) each formulated as an SC (suspension concentrate) and various herbicidal components alone and in combination. Forms of compound A were applied on an acid equivalent basis.
(§3) Other herbicidal components were applied on an active ingredient basis and included photosystem II (PSII)-inhibits propanil formulated as […] bentazon-sodium formulated as Basagran®, and simetryne (technical grade material).
(§4) Treatment requirements for each compound or herbicidal component were calculated based upon the rates being tested, the concentration of active ingredient or acid equivalent in the formulation, an application volume of 2 mL per component per pot, and an application area of 86.59 cm^2 per pot.
(§5) For formulated compounds, a measured amount was placed in an individual 100 or 200 mL glass vial and was dissolved in a volume of 1.25% (v/v) Agri-Dex® crop oil concentrate to obtain application solutions.
(§6) For technical grade compounds, a weighed amount was placed in an individual 100 to 200 mL glass vial and was dissolved in a volume of acetone to obtain concentrated stock solutions. […] The concentrated stock solutions obtained were diluted with an equivalent volume of an aqueous mixture containing 2.5% (v/v) crop oil concentrate so that the final application solutions contained 1.25% (v/v) crop oil concentrate.
(§7) Applications were made by injecting with a pipetter appropriate amounts of the application solutions, individually and sequentially, into the aqueous layer of the paddy. Control plants were treated in the same manner with the solvent blank. Applications were made so that all treated plant material received the same concentrations of acetone and crop oil concentrate.
(§8) The treated plants and control plants were placed in a greenhouse as described above and water was added as needed to maintain a paddy flood. After approximately 3 weeks the condition of the test plants as compared with that of the untreated plants was determined visually and scored on a scale of 0 to 100 percent where 0 corresponds to no injury or growth inhibition and 100 corresponds to complete kill. […]

[3] = system: ECHOR (Echinochloa oryzoides, early watergrass); assay: as above; assay type: in vivo, Echinochloa oryzoides (Ard.) Fritsch; settings: 70 g ae/ha; 20 DAA
Description: as §1, §2, §3, §4, §5, §6, §7, §8

SMILES: CCCCOC(=O)c1nc(-c2ccc(Cl)c(OC)c2F)c(F)c(N)c1Cl [Compound A n-Butyl Ester]
- pest or weed control at 16 g/ha ([1]; read-out: Visual Weed Control (%) Obs, 16 g ae/ha, 20 DAA): 15%
- pest or weed control at 17.5 g/ha ([1]; read-out: Visual Weed Control (%) Obs, 17.5 g ae/ha, 20 DAA): 48%
- Visual Weed Control (%) Obs ([2]; 35 g ae/ha): 0%
- Visual Weed Control (%) Obs ([2]; 70 g ae/ha): 0%
- Visual Weed Control (%) Obs [3]: 40%

— patent US8912121B2, “Herbicidal compositions comprising 4-amino-3-chloro-5-fluoro-6-(4-chloro-2-fluoro-3-methoxyphenyl)pyridine-2-carboxylic acid or a derivative thereof and certain PS II inhibitors” (Dow Agrosciences LLC, priority 2012, dated 2014)
